Like-named read-outs stand apart in the source and are kept apart here.
Legend:
[1] = test system: Xanthomonas maltophilia 948; format: cell-based
B. anthracis = format: cell-based, Bacillus anthracis; conditions: vegetative cells; component alone; 24 h
B. cereus spores = format: cell-based, Bacillus cereus
B. subtilis = format: cell-based, Bacillus subtilis
B. subtilis spores = format: cell-based, Bacillus subtilis
B. anthracis spores = format: cell-based, Bacillus anthracis; conditions: component alone
[2] = test system: Pseudomonas aeruginosa ATCC 1942
[3] = test system: B. pumilus RJ 0055 spores; format: cell-based, Bacillus pumilus
L. mesenteroides B 512F = format: cell-based, Leuconostoc mesenteroides
B. cereus = format: cell-based, Bacillus cereus
B. pumilus RJ 0055 = format: cell-based, Bacillus pumilus
[4] = vegetative cells, component alone, 24 h
[5] = component alone, 24 hours at 35° C.

In the case of [Na+].[O-]Cl [NaHClO3, sodium hypochlorite], the MIC [1, 4] is reported as 0.01 wt %, the MIC (E. coli B ATCC 23226; [4]) is reported as 0.02 wt % and the MIC (B. anthracis) is reported as 0.05 wt %. It also gave an MIC (B. cereus spores; […], component alone) of 4.0 wt %, an MIC (B. subtilis; [4]) of 0.1 wt % and an MIC (B. subtilis spores; […], component alone) of 4.0 wt %. It also gave an MIC (B. anthracis spores) of 1.0 wt %, an MIC [2, 5] of 500 weight ppm and an MIC ([3]; […], component alone) of 3.5 wt %. It also gave an MIC (L. mesenteroides B 512F; [4]) of 0.035 wt %, an MIC (Listeria monocytogenes; [4]) of 0.05 wt % and an MIC (S typhimurium ATCC 14028; [4]) of 0.02 wt %. It also gave an MIC (B. cereus; [4]) of 0.1 wt % and an MIC (B. pumilus RJ 0055; [4]) of 0.1 wt %.

Compound OO [H2O2, hydrogen peroxide] has an MIC [1] of 0.005 wt %, an MIC (E. coli B ATCC 23226) of 0.01 wt % and an MIC (B. anthracis) of 0.01 wt %. The MIC (B. cereus spores) was 5.0 wt %, the MIC (B. subtilis) was 0.025 wt % and the MIC (B. subtilis spores) was 5.0 wt %. For the same compound, the MIC (B. anthracis spores) was 1.0 wt %, the MIC [2] was 150 weight ppm and the MIC [3] was 4.0 wt %. For the same compound, the MIC (L. mesenteroides B 512F) was 0.006 wt %, the MIC (Listeria monocytogenes) was 0.005 wt % and the MIC (S typhimurium ATCC 14028) was 0.01 wt %. For the same compound, the MIC (B. cereus) was 0.025 wt % and the MIC (B. pumilus RJ 0055) was 0.025 wt %.

In the case of [Na+].[Na+].[O-][O-] [Sodium Peroxide, sodium peroxide], the MIC [2, 5] is reported as 150 weight ppm.
